{"source": "patent US20240066043A1", "about": "“PHARMACEUTICAL CO[…] IMPROVED DISSOLUTION AND RAPID ONSET BY TARGETED STOMACH AND MUCOSAL RELEASE” (Xpira Pharmaceuticals Inc., priority 2022, published 2024)", "key": {"[1]": {"conditions": "cited from earlier work"}, "[2]": {"conditions": "cited from earlier work", "remark": "listed apart in the source"}, "[3]": {"test": "Flowability measurements (bulk density, tapped density, Hausner ratio, compressibility index)"}, "[4]": {"molecular_target": "T1, neocortical serotonin 5-HT2A receptors (Homo sapiens, UniProt P28223)", "T1 construct": "host or cells: neocortex in vivo", "T1 sequence (P28223 whole entry)": "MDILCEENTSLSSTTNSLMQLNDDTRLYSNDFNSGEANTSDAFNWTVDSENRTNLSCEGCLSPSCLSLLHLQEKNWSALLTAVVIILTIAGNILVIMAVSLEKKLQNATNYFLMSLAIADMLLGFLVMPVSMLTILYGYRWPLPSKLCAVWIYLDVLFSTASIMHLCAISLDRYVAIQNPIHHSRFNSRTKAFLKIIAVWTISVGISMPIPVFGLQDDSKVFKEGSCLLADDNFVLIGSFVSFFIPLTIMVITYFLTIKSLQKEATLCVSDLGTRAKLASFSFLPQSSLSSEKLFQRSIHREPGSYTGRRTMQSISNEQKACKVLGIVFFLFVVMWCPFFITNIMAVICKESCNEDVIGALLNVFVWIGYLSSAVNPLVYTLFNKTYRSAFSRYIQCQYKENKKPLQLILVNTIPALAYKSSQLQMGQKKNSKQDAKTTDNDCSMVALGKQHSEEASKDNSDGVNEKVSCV", "conditions": "25 mg oral dose (Madsen et al., 2019); cited from earlier work"}, "[5]": {"conditions": "cited from earlier work", "remark": "listed apart in the source"}, "[6]": {"test": "Particle size analysis from SEM micrographs (circle equivalent diameter)", "type": "physicochemical", "conditions": "SEM micrograph FIG. 4B, unformulated psilocybin"}, "[7]": {"conditions": "cited from earlier work", "remark": "listed apart in the source"}, "[8]": {"conditions": "oral 0.224 mg/kg psilocybin (10 to 20 mg) (Hasler et al., 1997)"}, "[9]": {"conditions": "oral psilocybin (Brown et al., 2017)"}}, "note": "Read-outs that look alike come from different tables or passages of the source.", "data": [{"smiles": "CN(C)CCc1c[nH]c2cccc(O)c12", "note": "[psilocin]", "values": [{"measurement": "time to maximum plasma levels", "setting": "[1]; oral, rats (Chen et al., 2011)", "value": "approximately 90 minutes"}, {"measurement": "total volume of psilocin absorbed from the digestive tract", "setting": "[1]; psilocybin administered orally to rats (Kalberer et al., 1962)", "value": "approximately 50%"}, {"measurement": "time until psilocin detectable in plasma", "setting": "[2]; after administration of the parent compound psilocybin", "value": "≤ 20", "unit": "min"}, {"measurement": "time until psilocin appears in plasma", "setting": "[2]; after oral administration", "value": "≤ 15", "unit": "min"}, {"measurement": "psilocin half-life", "setting": "[2]; following oral administration of psilocybin (Brown et al., 2017)", "value": "approximately 3±1.1 hours"}, {"measurement": "half-life of psilocin in blood", "setting": "[2]; in vivo", "value": "2 to 3", "unit": "h"}, {"measurement": "average blood concentration of the active metabolite psilocin", "setting": "[2]; [8]", "value": "8.2 ± 2.8", "unit": "ng/mL"}, {"measurement": "time of average blood concentration of psilocin", "setting": "[2]; [8]", "value": "105 ± 37", "unit": "min"}, {"measurement": "time of peak psilocin levels", "setting": "[2]; [9]", "value": "approximately 80 minutes"}, {"measurement": "time psilocin is detectable after administration", "setting": "[2]; [9]", "value": "up to 24 hours"}, {"measurement": "share of overall clearance of psilocin through renal excretion", "setting": "[2]; urine over 24 hours after a single dose (Hasler et al., 2002)", "value": "less than 4%"}]}, {"smiles": "CN(C)CCc1c[nH]c2cccc(OP(=O)(O)O)c12", "note": "[Psilocybin, 3[2-(dimethylamino)ethyl]-1H-indol-4-yl] dihydrogen phosphate]", "values": [{"measurement": "Bulk density", "setting": "[3]; USP41-NF36 616", "value": 0.19, "unit": "g/mL"}, {"measurement": "Tapped density", "setting": "[3]; USP41-NF36 616", "value": 0.45, "unit": "g/mL"}, {"measurement": "Compressibility index", "setting": "[3]; USP41-NF36 1174", "value": 58, "unit": "%"}, {"measurement": "Hausner ratio", "setting": "[3]; tap density divided by bulk density, USP41-NF36 1174", "value": 2.36}, {"measurement": "occupancy of neocortical serotonin 5-HT2A receptors", "setting": "[4]", "value": "near-maximal occupancy"}, {"measurement": "peak of psychoactive effects", "setting": "[5]; after a dose", "value": "about two hours"}, {"measurement": "onset of noticeable psychoactive effects", "setting": "[5]; after an oral dose", "value": "within one hour"}, {"measurement": "loss of psychoactive effects", "setting": "[5]; after the dose", "value": "around six hours"}, {"measurement": "pharmacokinetics of psilocybin (as psilocin), dose linearity", "setting": "[2]; dose range 0.3-0.6 mg/kg (Brown et al., 2017; Hasler et al., 2002)", "value": "linear"}, {"measurement": "estimated dose-normalized bioavailability of psilocybin", "setting": "[2]; oral 0.224 mg/kg psilocybin, N=3 (Hasler et al., 1997)", "value": "52.7±20", "unit": "%"}, {"measurement": "bioavailability", "setting": "[2]; oral psilocybin", "value": "~50", "unit": "%"}, {"measurement": "crystal size", "setting": "[6]", "value": "≤ 30", "unit": "μm"}, {"measurement": "solubility", "setting": "[7]; boiling methanol", "value": 120, "unit": "parts"}, {"measurement": "solubility", "setting": "[7]; boiling water", "value": 20, "unit": "parts"}, {"measurement": "stability", "setting": "[7]; dark storage at controlled room temperature", "value": "stable over extended periods"}]}]}
